Cc1cc(C(=O)O)ccc1[N+](=O)[O-]
Conditions	solubility (mole fraction)
in 1,4-dioxane, 283.15 K	0.0407
in 1,4-dioxane, 285.65 K	0.0428
in 1,4-dioxane, 288.15 K	0.0448
in 1,4-dioxane, 290.65 K	0.0469
in 1,4-dioxane, 293.15 K	0.0493
in 1,4-dioxane, 295.65 K	0.0519
in 1,4-dioxane, 298.15 K	0.0545
in 1,4-dioxane, 300.65 K	0.0571
in 1,4-dioxane, 303.15 K	0.06
in 1,4-dioxane, 305.65 K	0.0628
in 1,4-dioxane, 308.15 K	0.0658
in 1,4-dioxane, 310.65 K	0.0688
in 1,4-dioxane, 313.15 K	0.0718
in 1,4-dioxane, 315.65 K	0.0754
in 1,4-dioxane, 318.15 K	0.0802
in DMF, 283.15 K	0.0677
in DMF, 285.65 K	0.0709
in DMF, 288.15 K	0.0754
in DMF, 290.65 K	0.0795
in DMF, 293.15 K	0.0845
in DMF, 295.65 K	0.0908
in DMF, 298.15 K	0.0975
in DMF, 300.65 K	0.104
in DMF, 303.15 K	0.111
in DMF, 305.65 K	0.118
in DMF, 308.15 K	0.126
in DMF, 310.65 K	0.135
in DMF, 313.15 K	0.142
in DMF, 315.65 K	0.152
in DMF, 318.15 K	0.162
in NMP, 283.15 K	0.0856
in NMP, 285.65 K	0.0872
in NMP, 288.15 K	0.09
in NMP, 290.65 K	0.0933
in NMP, 293.15 K	0.0965
in NMP, 295.65 K	0.1
in NMP, 298.15 K	0.105
in NMP, 300.65 K	0.109
in NMP, 303.15 K	0.113
in NMP, 305.65 K	0.118
in NMP, 308.15 K	0.123
in NMP, 310.65 K	0.128
in NMP, 313.15 K	0.133
in NMP, 315.65 K	0.138
in NMP, 318.15 K	0.145
in acetone, 283.15 K	0.0204
in acetone, 285.65 K	0.0212
in acetone, 288.15 K	0.022
in acetone, 290.65 K	0.0228
in acetone, 293.15 K	0.0238
in acetone, 295.65 K	0.0247
in acetone, 298.15 K	0.026
in acetone, 300.65 K	0.0273
in acetone, 303.15 K	0.0285
in acetone, 305.65 K	0.0299
in acetone, 308.15 K	0.0311
in acetone, 310.65 K	0.0325
in acetone, 313.15 K	0.0338
in acetone, 315.65 K	0.0353
in acetone, 318.15 K	0.0372
in acetonitrile, 283.15 K	0.00255
in acetonitrile, 285.65 K	0.00276
in acetonitrile, 288.15 K	0.00302
in acetonitrile, 290.65 K	0.00328
in acetonitrile, 293.15 K	0.00355
in acetonitrile, 295.65 K	0.00382
in acetonitrile, 298.15 K	0.00412
in acetonitrile, 300.65 K	0.00438
in acetonitrile, 303.15 K	0.00469
in acetonitrile, 305.65 K	0.00498
in acetonitrile, 308.15 K	0.00529
in acetonitrile, 310.65 K	0.00564
in acetonitrile, 313.15 K	0.00598
in acetonitrile, 315.65 K	0.00638
in acetonitrile, 318.15 K	0.00688
in ethanol, 283.15 K	0.00751
in ethanol, 285.65 K	0.0078
in ethanol, 288.15 K	0.00818
in ethanol, 290.65 K	0.00866
in ethanol, 293.15 K	0.00915
in ethanol, 295.65 K	0.00964
in ethanol, 298.15 K	0.0102
in ethanol, 300.65 K	0.0108
in ethanol, 303.15 K	0.0113
in ethanol, 305.65 K	0.0119
in ethanol, 308.15 K	0.0125
in ethanol, 310.65 K	0.0132
in ethanol, 313.15 K	0.0138
in ethanol, 315.65 K	0.0146
in ethanol, 318.15 K	0.0155
in ethyl acetate, 283.15 K	0.0106
in ethyl acetate, 285.65 K	0.0111
in ethyl acetate, 288.15 K	0.0116
in ethyl acetate, 290.65 K	0.0123
in ethyl acetate, 293.15 K	0.0127
in ethyl acetate, 295.65 K	0.0134
in ethyl acetate, 298.15 K	0.014
in ethyl acetate, 300.65 K	0.0146
in ethyl acetate, 303.15 K	0.0153
in ethyl acetate, 305.65 K	0.0159
in ethyl acetate, 308.15 K	0.0167
in ethyl acetate, 310.65 K	0.0175
in ethyl acetate, 313.15 K	0.0185
in ethyl acetate, 315.65 K	0.0193
in ethyl acetate, 318.15 K	0.0205
in isopropanol, 283.15 K	0.00877
in isopropanol, 285.65 K	0.00915
in isopropanol, 288.15 K	0.00966
in isopropanol, 290.65 K	0.0102
in isopropanol, 293.15 K	0.0108
in isopropanol, 295.65 K	0.0115
in isopropanol, 298.15 K	0.0122
in isopropanol, 300.65 K	0.0129
in isopropanol, 303.15 K	0.0136
in isopropanol, 305.65 K	0.0143
in isopropanol, 308.15 K	0.0151
in isopropanol, 310.65 K	0.016
in isopropanol, 313.15 K	0.0169
in isopropanol, 315.65 K	0.0181
in isopropanol, 318.15 K	0.0192
in methanol, 283.15 K	0.00606
in methanol, 285.65 K	0.00664
in methanol, 288.15 K	0.00734
in methanol, 290.65 K	0.00809
in methanol, 293.15 K	0.00879
in methanol, 295.65 K	0.00956
in methanol, 298.15 K	0.0104
in methanol, 300.65 K	0.0111
in methanol, 303.15 K	0.012
in methanol, 305.65 K	0.0129
in methanol, 308.15 K	0.0137
in methanol, 310.65 K	0.0147
in methanol, 313.15 K	0.0158
in methanol, 315.65 K	0.0169
in methanol, 318.15 K	0.0184
in n-butanol, 283.15 K	0.00676
in n-butanol, 285.65 K	0.00725
in n-butanol, 288.15 K	0.00789
in n-butanol, 290.65 K	0.00844
in n-butanol, 293.15 K	0.00913
in n-butanol, 295.65 K	0.00994
in n-butanol, 298.15 K	0.0108
in n-butanol, 300.65 K	0.0116
in n-butanol, 303.15 K	0.0125
in n-butanol, 305.65 K	0.0134
in n-butanol, 308.15 K	0.0144
in n-butanol, 310.65 K	0.0153
in n-butanol, 313.15 K	0.0163
in n-butanol, 315.65 K	0.0174
in n-butanol, 318.15 K	0.0188
in n-propanol, 283.15 K	0.00726
in n-propanol, 285.65 K	0.00765
in n-propanol, 288.15 K	0.00815
in n-propanol, 290.65 K	0.00866
in n-propanol, 293.15 K	0.00914
in n-propanol, 295.65 K	0.00966
in n-propanol, 298.15 K	0.0103
in n-propanol, 300.65 K	0.0109
in n-propanol, 303.15 K	0.0115
in n-propanol, 305.65 K	0.0121
in n-propanol, 308.15 K	0.0129
in n-propanol, 310.65 K	0.0137
in n-propanol, 313.15 K	0.0145
in n-propanol, 315.65 K	0.0155
in n-propanol, 318.15 K	0.0164
in toluene, 283.15 K	0.0165
in toluene, 285.65 K	0.0174
in toluene, 288.15 K	0.0184
in toluene, 290.65 K	0.0191
in toluene, 293.15 K	0.0202
in toluene, 295.65 K	0.0211
in toluene, 298.15 K	0.0221
in toluene, 300.65 K	0.0231
in toluene, 303.15 K	0.0243
in toluene, 305.65 K	0.0253
in toluene, 308.15 K	0.0265
in toluene, 310.65 K	0.0279
in toluene, 313.15 K	0.0295
in toluene, 315.65 K	0.0314
in toluene, 318.15 K	0.0333

Source: BigSolDB 2.1
